From patent US9150632B2 (Indiana University Research and Technology Corporation, priority 2009, dated 2015)
Non-standard residues stand in square brackets, D forms with d. Residues, ends and D or L forms follow the SMILES beside them. *: point of attachment. Palmitoyl = CCCCCCCCCCCCCCCC(=O)*; Aib = CC(C)(N)C(=O)O

Tests used:
[1] = target: T1, GLP-1 receptor (Homo sapiens, UniProt P43220); assay: cell-based
Experimental: (§1) Peptide absorbance readings were obtained from UV Absorbance measurements at 280 nm on a Genesys 6 Spectrophotometer (Thermo Electron Corporation). Beer's Law was used to calculate solution concentrations based on the number of tryptophan and tyrosine residues in each analog. At the end of the incubation, 100 μL LucLite luminescence substrate reagent was added to each well, the plate sealed and shaken, and placed into a Wallac Trilux luminescence counter for cAMP detection.
(§2) HEK293 cells were co-transfected with the GcgR or GLP-1R cDNAs and a luciferase reporter gene-linked to a cAMP response element (CRE). […] The plate was incubated for 10 min in the dark and light output was quantified on a MicroBeta1450 liquid scintillation counter (Perkin-Elmer, Wellesley, Mass.).

[2] = target: T1, GLP-1 receptor; details: for GLP-1 Receptor % relative activity: activity relative to the native hormone at the indicated receptor
Experimental: as §1, §2

[3] = target: T2, glucagon receptor (Homo sapiens, UniProt P47871); assay: Functional assay-cAMP synthesis, luciferase reporter in HEK293 cells, glucagon receptor; type: cell-based; details: for Glucagon Receptor % relative activity: activity relative to the native hormone at the indicated receptor; for EC50: cAMP induction, in vitro, as in Example 14
T2 construct: expressed in transfected cells; host or cells: HEK293
T2 sequence (P47871 26-477): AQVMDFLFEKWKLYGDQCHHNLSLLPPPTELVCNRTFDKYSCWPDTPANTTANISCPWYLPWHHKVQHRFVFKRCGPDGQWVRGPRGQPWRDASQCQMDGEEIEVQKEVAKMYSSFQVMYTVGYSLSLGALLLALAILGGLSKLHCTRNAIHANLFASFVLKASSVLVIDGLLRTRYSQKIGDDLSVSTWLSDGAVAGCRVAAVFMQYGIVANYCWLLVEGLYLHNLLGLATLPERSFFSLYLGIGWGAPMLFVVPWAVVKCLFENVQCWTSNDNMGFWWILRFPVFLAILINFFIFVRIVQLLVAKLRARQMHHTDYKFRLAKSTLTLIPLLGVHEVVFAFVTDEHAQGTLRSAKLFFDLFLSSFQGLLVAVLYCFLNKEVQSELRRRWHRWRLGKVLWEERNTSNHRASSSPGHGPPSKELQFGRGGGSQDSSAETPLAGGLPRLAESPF

[4] = target: T3, GIP receptor (Homo sapiens, UniProt P48546); assay: Functional assay-cAMP synthesis, luciferase reporter in HEK293 cells, GIP receptor; type: cell-based; details: for GIP Receptor % relative activity: activity relative to the native hormone at the indicated receptor; for EC50: cAMP induction, in vitro, as in Example 14
T3 construct: expressed in transfected cells; host or cells: HEK293
T3 sequence (P48546 22-466): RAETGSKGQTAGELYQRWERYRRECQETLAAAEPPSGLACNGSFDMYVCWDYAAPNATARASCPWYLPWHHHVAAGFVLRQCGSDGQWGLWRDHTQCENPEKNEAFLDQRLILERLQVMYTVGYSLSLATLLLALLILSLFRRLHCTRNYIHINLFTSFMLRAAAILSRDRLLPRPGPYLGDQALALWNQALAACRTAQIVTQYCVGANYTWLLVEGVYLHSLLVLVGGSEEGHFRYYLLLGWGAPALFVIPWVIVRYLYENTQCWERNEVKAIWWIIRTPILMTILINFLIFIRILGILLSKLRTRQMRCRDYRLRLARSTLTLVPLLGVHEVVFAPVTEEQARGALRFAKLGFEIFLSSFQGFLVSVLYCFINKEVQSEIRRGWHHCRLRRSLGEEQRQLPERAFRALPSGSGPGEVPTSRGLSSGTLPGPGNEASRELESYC

[5] = Table 35, relative to the native hormone

T1 sequence (P43220 24-463, species assumed): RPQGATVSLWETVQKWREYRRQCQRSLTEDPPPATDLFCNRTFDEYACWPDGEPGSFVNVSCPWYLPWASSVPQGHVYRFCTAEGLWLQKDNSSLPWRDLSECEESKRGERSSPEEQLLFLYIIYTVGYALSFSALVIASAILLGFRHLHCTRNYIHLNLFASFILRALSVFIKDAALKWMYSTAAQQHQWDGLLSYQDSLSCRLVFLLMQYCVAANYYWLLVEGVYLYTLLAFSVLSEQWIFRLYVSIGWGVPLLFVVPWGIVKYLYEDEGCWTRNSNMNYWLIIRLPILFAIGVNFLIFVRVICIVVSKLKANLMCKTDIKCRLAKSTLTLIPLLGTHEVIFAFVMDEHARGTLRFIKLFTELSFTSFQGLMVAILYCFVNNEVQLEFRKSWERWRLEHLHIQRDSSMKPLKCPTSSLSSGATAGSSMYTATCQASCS

| Structure (SMILES) | EC50 [1] [nM] | % Relative activity at the Receptor for GLP-1 [2, 5] [%] | GLP-1 Receptor % relative activity [2] [%] | % Relative activity at the Receptor for Glucagon [3, 5] [%] | Glucagon Receptor % relative activity [3] [%] | % Relative activity at the Receptor for GIP [4, 5] [%] | GIP Receptor % relative activity [4] [%] | EC50 [3] [nM] | EC50 [4] [nM] | agonist activity at the GIP receptor ([4]; text on Table 34) |
| --- | --- | --- | --- | --- | --- | --- | --- | --- | --- | --- |
| CC[C@H](C)[C@H](NC(=O)[C@H](Cc1ccccc1)NC(=O)[C@H](CCC(=O)O)NC(=O)[C@H](CCCCN)NC(=O)[C@H](C)NC(=O)[C@H](C)NC(=O)[C@H](CCC(N)=O)NC(=O)C(C)(C)NC(=O)[C@H](CC(=O)O)NC(=O)[C@H](CC(C)C)NC(=O)[C@H](Cc1ccc(O)cc1)NC(=O)[C@H](CCCCN)NC(=O)[C@H](CO)NC(=O)[C@H](Cc1ccc(O)cc1)NC(=O)[C@H](CC(=O)O)NC(=O)[C@H](CO)NC(=O)[C@@H](NC(=O)[C@H](Cc1ccccc1)NC(=O)[C@@H](NC(=O)CNC(=O)[C@H](CCC(N)=O)NC(=O)C(C)(C)NC(=O)[C@@H](N)Cc1c[nH]cn1)[C@@H](C)O)[C@@H](C)O)C(=O)N[C@@H](CS)C(=O)N[C@@H](Cc1c[nH]c2ccccc12)C(=O)N[C@@H](CC(C)C)C(=O)N[C@@H](CCSC)C(=O)N[C@@H](CC(N)=O)C(=O)NCC(=O)NCC(=O)N1CCC[C@H]1C(=O)N[C@@H](CO)C(=O)N[C@@H](CO)C(=O)NCC(=O)N[C@@H](C)C(=O)N1CCC[C@H]1C(=O)N1CCC[C@H]1C(=O)N1CCC[C@H]1C(=O)N[C@@H](CO)C(=O)N[C@@H](CCCCN)C(N)=O [mt-348] (H-H[Aib]QGTFTSDYSKYLD[Aib]QAAKEFICWLMNGGPSSGAPPPSK-NH2) | 0.0037 | 149 | 148.65 | 8.2 | 8.16 | 0.2 | 0.15 |  |  |  |
| CC[C@H](C)[C@H](NC(=O)[C@H](Cc1ccccc1)NC(=O)[C@H](CCC(=O)O)NC(=O)[C@H](CCCCN)NC(=O)[C@H](C)NC(=O)[C@H](C)NC(=O)[C@H](CCC(N)=O)NC(=O)[C@H](CCC(=O)O)NC(=O)[C@H](CC(=O)O)NC(=O)[C@H](CC(C)C)NC(=O)[C@H](Cc1ccc(O)cc1)NC(=O)[C@H](CCCCN)NC(=O)[C@H](CO)NC(=O)[C@H](Cc1ccc(O)cc1)NC(=O)[C@H](CC(=O)O)NC(=O)[C@H](CO)NC(=O)[C@@H](NC(=O)[C@H](Cc1ccccc1)NC(=O)[C@@H](NC(=O)CNC(=O)[C@H](CCC(N)=O)NC(=O)C(C)(C)NC(=O)[C@@H](N)Cc1c[nH]cn1)[C@@H](C)O)[C@@H](C)O)C(=O)N[C@@H](C)C(=O)N[C@@H](Cc1c[nH]c2ccccc12)C(=O)N[C@@H](CC(C)C)C(=O)N[C@@H](CCSC)C(=O)N[C@@H](CC(N)=O)C(=O)NCC(=O)NCC(=O)N1CCC[C@H]1C(=O)N[C@@H](CO)C(=O)N[C@@H](CO)C(=O)NCC(=O)N[C@@H](C)C(=O)N1CCC[C@H]1C(=O)N1CCC[C@H]1C(=O)N1CCC[C@H]1C(=O)N[C@@H](CO)C(=O)N[C@@H](CCCCN)C(N)=O [mt-363] | 0.0037 |  | 671.66 |  | 7.76 |  | 0.73 | 0.823 | 0.425 |  |
| CC[C@H](C)[C@H](NC(=O)[C@H](CO)NC(=O)[C@H](Cc1ccc(O)cc1)NC(=O)[C@H](CC(=O)O)NC(=O)[C@H](CO)NC(=O)[C@@H](NC(=O)[C@H](Cc1ccccc1)NC(=O)[C@@H](NC(=O)CNC(=O)[C@H](CCC(N)=O)NC(=O)C(C)(C)NC(=O)[C@@H](N)Cc1c[nH]cn1)[C@@H](C)O)[C@@H](C)O)C(=O)N[C@@H](Cc1ccc(O)cc1)C(=O)N[C@@H](CC(C)C)C(=O)N[C@@H](CC(=O)O)C(=O)NC(C)(C)C(=O)N[C@@H](CCC(N)=O)C(=O)N[C@@H](C)C(=O)N[C@@H](C)C(=O)N[C@@H](CCCCN)C(=O)N[C@@H](CCC(=O)O)C(=O)N[C@@H](Cc1ccccc1)C(=O)N[C@H](C(=O)N[C@@H](CC(N)=O)C(=O)N[C@@H](Cc1c[nH]c2ccccc12)C(=O)N[C@@H](CC(C)C)C(=O)N[C@@H](CCSC)C(=O)N[C@@H](CC(N)=O)C(=O)NCC(=O)NCC(=O)N1CCC[C@H]1C(=O)N[C@@H](CO)C(=O)N[C@@H](CO)C(=O)NCC(=O)N[C@@H](C)C(=O)N1CCC[C@H]1C(=O)N1CCC[C@H]1C(=O)N1CCC[C@H]1C(=O)N[C@@H](CO)C(=O)N[C@@H](CCCCN)C(N)=O)C(C)C [mt-361] (H-H[Aib]QGTFTSDYSIYLD[Aib]QAAKEFVNWLMNGGPSSGAPPPSK-NH2) | 0.0109 |  | 226.35 |  | 3.61 |  | 0.29 | 1.77 | 1.05 |  |
| CC[C@H](C)[C@H](NC(=O)[C@H](Cc1ccccc1)NC(=O)[C@H](CCC(=O)O)NC(=O)[C@H](CCCCN)NC(=O)[C@H](C)NC(=O)[C@H](C)NC(=O)[C@H](CCC(N)=O)NC(=O)[C@H](CCC(=O)O)NC(=O)[C@H](CC(=O)O)NC(=O)[C@H](CC(C)C)NC(=O)[C@H](Cc1ccc(O)cc1)NC(=O)[C@H](CCCCN)NC(=O)[C@H](CO)NC(=O)[C@H](Cc1ccc(O)cc1)NC(=O)[C@H](CC(=O)O)NC(=O)[C@H](CO)NC(=O)[C@@H](NC(=O)[C@H](Cc1ccccc1)NC(=O)[C@@H](NC(=O)CNC(=O)[C@H](CCC(N)=O)NC(=O)C(C)(C)NC(=O)[C@@H](N)Cc1c[nH]cn1)[C@@H](C)O)[C@@H](C)O)C(=O)N[C@@H](CS)C(=O)N[C@@H](Cc1c[nH]c2ccccc12)C(=O)N[C@@H](CC(C)C)C(=O)N[C@@H](CCSC)C(=O)N[C@@H](CC(N)=O)C(=O)NCC(=O)NCC(=O)N1CCC[C@H]1C(=O)N[C@@H](CO)C(=O)N[C@@H](CO)C(=O)NCC(=O)N[C@@H](C)C(=O)N1CCC[C@H]1C(=O)N1CCC[C@H]1C(=O)N1CCC[C@H]1C(=O)N[C@@H](CO)C(=O)N[C@@H](CCCCN)C(N)=O [mt-346] | 0.0015 |  | 366.67 |  | 3.70 |  | 0.34 | 0.954 | 0.796 |  |
| CCCCCCCCCCCCCCCC(=O)NCCCC[C@H](NC(=O)[C@H](CO)NC(=O)[C@@H]1CCCN1C(=O)[C@@H]1CCCN1C(=O)[C@@H]1CCCN1C(=O)[C@H](C)NC(=O)CNC(=O)[C@H](CO)NC(=O)[C@H](CO)NC(=O)[C@@H]1CCCN1C(=O)CNC(=O)CNC(=O)[C@H](CC(N)=O)NC(=O)[C@H](CCSC)NC(=O)[C@H](CC(C)C)NC(=O)[C@H](Cc1c[nH]c2ccccc12)NC(=O)[C@H](CC(N)=O)NC(=O)[C@@H](NC(=O)[C@H](Cc1ccccc1)NC(=O)[C@H](CCC(=O)O)NC(=O)[C@H](CCCCN)NC(=O)[C@H](C)NC(=O)[C@H](C)NC(=O)[C@H](CCC(N)=O)NC(=O)C(C)(C)NC(=O)[C@H](CC(=O)O)NC(=O)[C@H](CC(C)C)NC(=O)[C@H](Cc1ccc(O)cc1)NC(=O)[C@@H](NC(=O)[C@H](CO)NC(=O)[C@H](Cc1ccc(O)cc1)NC(=O)[C@H](CC(=O)O)NC(=O)[C@H](CO)NC(=O)[C@@H](NC(=O)[C@H](Cc1ccccc1)NC(=O)[C@@H](NC(=O)CNC(=O)[C@H](CCC(N)=O)NC(=O)C(C)(C)NC(=O)[C@@H](N)Cc1c[nH]cn1)[C@@H](C)O)[C@@H](C)O)[C@@H](C)CC)C(C)C)C(N)=O [mt-362] (H-H[Aib]QGTFTSDYSIYLD[Aib]QAAKEFVNWLMNGGPSSGAPPPSK(Palmitoyl)-NH2; N-terminus assumed) | 0.102 |  | 240.96 |  | 83.17 |  | 3.95 | 0.0768 | 0.0782 | exceptionally potent activity |
